# Measurements from patent US7297505B2, “Use of MDCK cell line to predict corneal penetration of drugs” (Alcon, Inc., priority 2004, dated 2007).
# What was measured:
# [1] = tested on: cornea; experiment: Predicted corneal permeability from MDCK permeability by statistical model; details: Corneal Permeability=5.41(MDCK Permeability)−0.01(MDCK Permeability)^2; in nm/s
# Excerpt: The method of the present invention comprises the following steps: (1) determining the MDCK permeation value for a drug molecule; and (2) entering said value in a suitable linear or quadratic statistical model to calculate a predicted corneal permeability value for said molecule. The statistical model is created by obtaining MDCK permeation values and corneal penetration values for at least two representative drug molecules, plotting those values on a graph and deriving a linear or quadratic statistical model from the graph.
# [2] = tested on: P-gp (MDR1); experiment: in vitro; details: dog, MDCK-MDR1
# Excerpt: (§1) The present invention is directed to the use of a new in vitro model for evaluating the ability of a drug molecule to penetrate the cornea. The model involves the use of MDCK cell permeability values to predict the ability of drug molecules to penetrate the cornea. The MDCK permeability values of drug molecules can be determined by means of known methods, such as the methods described in the following scientific articles: • 1. Horio, M, Pastan, I, Gottesman, M M, and Handler, J S. Transepithelial transport of vinblastine by kidney-derived cell lines. Application of a new kinetic model to estimate in situ Km of the pump. […] Pan, B F, Dutt, A, and Nelson, J A. Enhanced transepithelial flux of cimetidine by Madin-Darby canine kidney cells overexpressing human P-glycoprotein. […] The entire contents of the above-cited references relating to methods for determining MDCK permeation values for drug molecules are hereby incorporated in the present specification by reference. […] Various commercial scientific laboratories may be utilized to obtain MDCK permeation values (e.g., Absorption Systems, Exton, Pa., USA).
# (§2) In vitro MDCK cell permeability. Permeability and transport studies were conducted and the data were analyzed at Absorption Systems, Exton, Pa., using methods previously described.^12,13 MDCK(MDR) monolayers were grown to confluence on collagen-coated, microporous, polycarbonate membranes in 12-well Costar Transwell plates. To ensure monolayer integrity, the trans epithelial electrical resistance (TEER) was measured. […] The permeability assay buffer was Hank's Balanced Salt Solution containing 10 mM HEPES and 15 mM glucose at a pH of 7.0-7.2. Permeability through a cell-free (blank) membrane was studied to determine non-specific binding and free diffusion of the test article through the device. […] At each time point, 1 and 2 hours, a 200-μL aliquot was taken from the receiver chamber and replaced with fresh assay buffer. Cells were dosed on the apical side [apical-to-basolateral, absorptive transport, […]] or basolateral side [basolateral-to-apical, secretory transport, (B-A)] and incubated at 37° C. with 5% CO2 and 90% relative humidity. Each determination was performed in duplicate. Lucifer Yellow permeability was measured for each monolayer after the experiment, to ensure that the cell monolayer integrity and viability was not compromised by the test article.
# (§3) To determine the transport of compounds in the absence of functional P-gp activity, the above experimental conditions were used but in the presence of the P-gp inhibitor cyclosporin A (CSA).^14 For the studies using CSA, cells were pre-incubated for 30 minutes with the inhibitor (10 μM) and washed; during the permeation determination period CSA (10 μM) was present on both sides of the membrane. The Papp A-B determined in the presence of CSA was taken as an estimate of the permeability attributed to passive diffusion for the compound (Papp PD).
# [3] = tested on: MDCK(MDR) monolayers; experiment: in vitro; details: MDCK-MDR1
# Excerpt: as §1, §2, §3
# [4] = Ex vivo corneal penetration (perfusion chamber); assay type: in vitro ADME; details: rabbit; Table 2; read-out: Ex vivo Rabbit Corneal Permeability, Papp nm/s
# Description: The intact eyes, along with the lids and conjunctival sacs were then enucleated and immediately stored in about 70 ml of fresh BSS PLUS® Sterile Irrigating Solution (Alcon Laboratories, Inc.) saturated with O2/CO2 (95:5). Within one hour, corneas were mounted in the modified perfusion chamber as described by Schoenwald and Huang (G1). BSS PLUS® solution was used as the receiving and rinsing solution throughout the perfusion experiments. Steady-state conditions were used in order to determine the apparent permeability coefficients. After mounting the corneas in the chamber, 7.5 mls of BSS PLUS® solution was added to the receiving chamber (endothelial side of the cornea). Then, 7 mls of 0.1 mMole solutions of each fluoroquinolone prepared in BSS PLUS® solution was added into the donor chamber (epithelial side of the cornea). Throughout the experiment, both solutions were bubbled continuously with O2/CO2 (95:5) at the rate of about one bubble per second. This provides mixing of the solution in each chamber, oxygenation of the cornea, and pH control. Samples (0.15 ml) were withdrawn from the receiving chamber at 30 min intervals over a period of five hours. BSS PLUS® solution (0.15 ml) was added back to the receiving chamber after each withdrawal to compensate for loss of volume.
# At the end of each permeability experiment, The final volume of the receiving chambers was noted, and the viability of the corneas was assessed by determining their hydration level: The corneas were trimmed of excess scleral tissue and conjunctiva, blotted, weighed, dried overnight at room temperature under vacuum over phosphorus pentoxide, and then re-weighed.
# C is the steady state measured concentration of […] in the donor solution in units of μg/ml or ppm; and 60 is the conversion of minutes to seconds.
Predicted Corneal Permeability [1],Papp at 10 μM [2],MDCK^2 [3],"Papp at 5 h, 0.1 mMole [4]",Post experiment Lucifer Yellow permeability in monolayers [3],Compound
33.83,6.6 nm/s,43.56,160 nm/s,,O=C1OC2(c3ccc(O)cc3Oc3cc(O)ccc32)c2ccccc21 [Fluorescein]
,,,,0.24-0.75 ×10^−6 cm/s,Lucifer Yellow
177.99,36.8 nm/s,1354.24,98 nm/s,,CC[C@@H]1C(=O)OC[C@@H]1Cc1cncn1C [Pilocarpine]
164.91,33.9 nm/s,1149.21,240 nm/s,,CC(C)(C)NC[C@H](O)COc1nsnc1N1CCOCC1 [Timolol]
625.74,181 nm/s,32761,740 nm/s,,NC(=O)Cc1cccc(C(=O)c2ccccc2)c1N [Nepafenac]
,,1428.84,,,C[C@@H]1C[C@H]2[C@@H]3CCC4=CC(=O)C=C[C@]4(C)[C@@]3(F)[C@@H](O)C[C@]2(C)[C@@]1(O)C(=O)CO [Dexamethasone]

Compound,Predicted Corneal Permeability [1],Papp at 10 μM [2],MDCK^2 [3],"Papp at 5 h, 0.1 mMole [4]",Post experiment Lucifer Yellow permeability in monolayers [3]
Nc1cc(Cl)c(N=C2NCCN2)c(Cl)c1 [Apraclonidine],19.58,3.8 nm/s,14.44,38 nm/s,
O=C1CC2(CCCC2)CC(=O)N1CCCCN1CCN(c2ncccn2)CC1 [Buspirone],675.82,325 nm/s,105625,665 nm/s,
CC(C)NCC(O)COc1ccc(CCOCC2CC2)cc1 (stereo not drawn) [Betaxolol],657.76,202 nm/s,40804,600 nm/s,
